From article PMC8465649, “Semaphorin 3A—Glycosaminoglycans Interaction as Therapeutic Target for Axonal Regeneration” (Pharmaceuticals, 2021)

Legend:
[1] = Potentiometric titration (protonation state); format: physicochemical; conditions: 25 °C, 0.15 M NaCl
Method: UV absorbance was measured using a SpectraMax M5 spectrophotometer (Molecular Devices, Sunnyvale, CA, USA). The experiments were performed with a 10 μM methylene blue (MB) solution in 5 mM Tris-HCl buffer at pH 7.5, to which increasing amounts of heparin were added to saturation of the MB dye. For the competition assays, solutions of MB and heparin at fixed concentrations were titrated with increasing amounts of SICHI or CSIC02–04 peptoids. Then, the relative increase in absorbance at 665 nm, due to release of MB from the MB–heparin complex when adding either SICHI or CSIC02–04 to the cuvette, can be plotted vs. the charge ratio considering their respective concentrations and that all the peptoids have three positive charges, and heparin has four negative charges per disaccharide unit. With this information, the charge excess for 50% of displacement of the MB dye (CE50) for each compound can be calculated for comparison. Potentiometric titrations were carried out in a reaction vessel thermostated with a water bath at 25.0 ± 0.1 °C under nitrogen atmosphere, and 0.15 M NaCl was used as the supporting electrolyte. The titrant was delivered by a precision microburette. The potentiometric measurements were made with a pH-mV meter. The reference electrode was an Ag/AgCl electrode in saturated KCl solution. The acquisition of the emf data was performed with the computer program Tiamo 2.3.1. […]

[2] = 1D 1H NMR titration with chondroitin sulfate; format: binding; conditions: increasing amounts of CS, pH 7.5
From the text: As a simple way to characterize the GAG binding behavior, we applied the method previously described by Jiao et al., using the cationic dye known as methylene blue (MB) in a colorimetric competition assay. To compare with our previous results for SICHI, we performed similar experimental design and data analysis, using the charge excess at 50% of MB displacement (CE50) as the parameter to compare the respective binding abilities. The four peptoids rendered very similar CE50 values (CE50 = 1.5–1.8, Figure 6a), reflecting the equivalent charge states. However, CSIC02 reached saturation (complete MB displacement) with a lower number of equivalents, which can be due to its slightly larger molecular size that may cause a more efficient interference with MB binding. Next, we assessed the integrity and solubility of CSIC02 by NMR. To characterize its tendency to aggregate in aqueous solution, NMR spectra at increasing concentrations were acquired which show the same sharp signals under all conditions (Figure S13). […] Direct binding of CSIC02 to GAGs was qualitatively assessed by specific NMR experiments.
Figure S14. CSIC02 spectra with increasing amount of Chondroitin sulfate from shark
cartilage (0,5, 1,0. 1,5, 2,0. 2,5 and 3,0 mg). Spectra were acquired in 10 mM Tris-HCl/150
(1 picture or pasted object on this page, not shown here)

CCN(CC)CCN(CC(=O)N(CCN1CCCC1)CC(=O)N(CCC1CCCN1C)CC(N)=O)C(=O)OCc1ccccc1 (centres unmarked) [CSIC02]
protonation state at neutral pH [1]: triprotonated
binding to chondroitin sulfate (qualitative) [2]: progressive shifting of CSIC02 resonances
